The values that follow come from US10226043B2, “Controlled release biocidal salts” (Nevada Naturals Inc., priority 2005, dated 2019).

Experiment [1] has as its system microbes such as bacteria, fungi and yeasts. Particulars: general statement, no test described; cited from earlier work.
For experiment [2], the system named is naturally-occurring aerobic bacteria of beef purge. As to the kind of experiment: Beef purge test. It counts as cell-based. Particulars: for Avg. CFU/g / % Reduction: 48 hours, refrigerated, 5% w/w (0.5 g in 10 ml purge); for % Reduction: vs control. The procedure: Two beef tenderloins containing a large quantity of purge (i.e., liquid surrounding raw meats; meat soaker pads were used to trap such liquids to the extent possible) were purchased at a local store. The purge was isolated from the packages and transferred to a series of test tubes and 10 ml of purge were placed in each test tube. To the test tubes was added 0.5 g of either LAE hydrochloride or LAE mono-laurate salts. The samples were mixed in a vortex mixer and serial dilutions were then plated on petrifilm for readings at time zero. The test tubes were then placed in the refrigerator and were again plated at 24 hours and 48 hours. The beef purge contained naturally-occurring aerobic bacteria. The goal is to have >99% reduction of the bacteria after 48 hours. LAE hydrochloride was tested at 0.5 g/10 ml w/v. […] Note that LAE-monolaurate contains about 66% of the active LAE cation.

For experiment [3], the system named is yeast cultures and A. niger. As to the kind of experiment: Food-grade preservation test (aloe vera gel challenge). It counts as cell-based. The following applies: for Log Reduction Values, day 0: day 0, initial challenge 7 logs; for Log Reduction Values, day 0 / Log Reduction Values, day 2 / Log Reduction Values, day 7 / Log Reduction Values, day 14: aloe vera gel pH 4-4.5; for Log Reduction Values, day 0 / Log Reduction Values, day 2 / Log Reduction Values, day 7 / Log Reduction Values, day 14 / Log Reduction Values, day 21 / Log Reduction Values, day 28 / Log Reduction Values, day 42 / Log Reduction Values, day 35: LAE-HCl 1725 ppm, LAE-lactate 1500 ppm, lactic acid 1500 ppm; for Log Reduction Values, day 21: day 21 (re-challenge of 7 logs at day 21); for Log Reduction Values, day 28: day 28 (re-challenges of 7 logs at day 21 and day 28); for Log Reduction Values, day 42: day 42, after two re-challenges; for Log Reduction Values, day 35: day 35, after the second re-challenge. The procedure:
Aloe vera gel was prepared as a 50% dilution and dispensed as 20 g per container. Inoculum was prepared as 48 hour yeast cultures in tripticase soy broth and A. niger suspension. The inoculum was pooled and 100 μl added to each container. The preservatives were prepared as 1% solutions and added to each pre-labeled container. The samples were well mixed and stored. Recoveries were carried out at selected intervals (1:10 dilutions plated with sabourad dextrose agar. Pre-labeled plates were incubated at 25-30° C. for 48-72 hours; the pH of the samples was in the range of 4-4.5. The plates were removed from incubation, counted cfu recorded and converted to log reduction values.
Thereafter, re-challenges of 7 logs each were made at day 21 and day 28.

Another experiment has as its system Staphylococcus aureus. As to the kind of experiment: Antimicrobial activity of LAE laurate, minimum inhibitory concentration on inoculated soya agar plates. It counts as cell-based. Particulars: Staphylococcus aureus (Gram positive), 37° C., 48 hours, salt dissolved in 1,2-pentanediol. The procedure: (§1) 0.1 g of N^α-lauroyl-L-arginine ethyl ester laurate (LAE laurate) was dissolved in 100 g of 1,2-pentanediol so as to provide a solution containing 1,000 parts per million of the salt. The solution was then applied to soya agar plates which had been previously inoculated with the bacteria indicated below and subsequently incubated at 37° C. for 48 hours.

A further experiment concerns Enterobacter aerogenes. The experiment is described as above. The format is cell-based. The following applies: Enterobacter aerogenes (Gram negative), 37° C., 48 hours, salt dissolved in 1,2-pentanediol. The procedure:
as §1

Another experiment deals with Bacillus subtilus. Described as above. The format is cell-based. The following applies: Bacillus subtilus (Gram positive), 37° C., 48 hours, salt dissolved in 1,2-pentanediol. As to the method: as §1
In experiment [4] the test system is bacteria that are part of the background flora of raw meat. As to the kind of experiment: Antimicrobial activity of compounded films (beef loins in heat-sealed package). The format is cell-based. As to the method: Two beef loins from a slaughterhouse were tested in a heat-sealed package simulating food packaging. The linear low density polyethylene film was compounded with 1% w/w LAE lactate biocidal salt of the invention. The log colony forming units (“CFU”) reduction values for bacteria that are part of the background flora of raw meat for both samples are 42 days indicate that there is a release of the salt of the invention from the polyethylene film to the surrounding beef surfaces.

Setting [5] is: day 42, film compounded with 1% w/w salt, vs. control.

`Oc1cc(Cl)ccc1Oc1ccc(Cl)cc1Cl` [triclosan]: in experiment [1], the “biocidal ions needed to inhibit or kill microbes” value is 2-40 ppm.

Consider `CCCCCCCCCCCC(=O)N[C@@H](CCCN=C(N)N)C(=O)OCC.Cl` [LAE-HCl], for which, in experiment [2], the “Avg. CFU/g” value is under 1.000E+02 CFU/g and the “% Reduction” value turned out to be 99.999%. In addition, in experiment [3], the “Log Reduction Values, day 0” value is listed as 0; the “Log Reduction Values, day 2” value came out at 4.7; the “Log Reduction Values, day 7” value turned out to be 6.0; the “Log Reduction Values, day 14” value was 5.8. Also, in experiment [3], the “Log Reduction Values, day 21” value is listed as 6.0; the “Log Reduction Values, day 28” value is given as 1.7; the “Log Reduction Values, day 42” value is given as 0.0.

In the case of `CC(O)C(=O)O` (stereo not drawn) [Lactic acid], in experiment [3], the “Log Reduction Values, day 2” value came to 1.0; the “Log Reduction Values, day 7” value amounted to 0.2; the “Log Reduction Values, day 14” value is 0.0; the “Log Reduction Values, day 35” value was determined as 0.0. Moreover, the “Log Reduction Values, day 42” value in experiment [3] amounted to 0.0.

On to “N^α-lauroyl-L-arginine ethyl ester laurate [LAE laurate]”, for which the “Minimum Inhibitory Concentration” value with Staphylococcus aureus was under 40 ppm; with Enterobacter aerogenes, under 45 ppm; in the experiment with Bacillus subtilus, under 25 ppm. Also, the “Avg. CFU/g” value in experiment [2] came to 2.82E+03 CFU/g. For the same compound, the “% Reduction” value in experiment [2] is on record as 99.96%. Moreover, in experiment [2] (after 48 hours, based on the test requirements (>99% reduction)), the “performance compared with LAE-HCl” value is listed as “performed as well as LAE-HCl”.

Regarding `[H]/N=C(\N/C(=N/[H])NCCCCCCNC(=N)NC(=N)Nc1ccc(Cl)cc1)Nc1ccc(Cl)cc1` [chlorhexidine], the “biocidal ions needed to inhibit or kill microbes” value in experiment [1] is given as 2-8 ppm.

As for `CC(O)C(=O)O.CCCCCCCCCCCC(=O)N[C@@H](CCCNC(=N)N)C(=O)OCC` [LAE lactate], the “preservation compared with LAE-HCl” value in experiment [3] (after the two re-challenges) is recorded as “superior to LAE-HCl”. Also, in experiment [3], the “Log Reduction Values, day 0” value was 0; the “Log Reduction Values, day 2” value is on record as 3.7; the “Log Reduction Values, day 7” value is listed as 6.0; the “Log Reduction Values, day 14” value stood at 6.0. Further, in experiment [3], the “Log Reduction Values, day 21” value turned out to be 6.0; the “Log Reduction Values, day 28” value was determined as 3.9; the “Log Reduction Values, day 35” value is 4.0; the “Log Reduction Values, day 42” value amounted to 0.7. Besides, in experiment [4] (day 7, beef loin in linear low density polyethylene film compounded with 1% w/w salt), the “Log CFU/g, day 7” value is on record as 2.31 Log CFU/g. In experiment [4] (day 14, beef loin in linear low density polyethylene film compounded with 1% w/w salt), the “Log CFU/g, day 14” value was 3.68 Log CFU/g. Further, the “Log CFU/g, day 21” value in experiment [4] (day 21, beef loin in linear low density polyethylene film compounded with 1% w/w salt) came to 3.97 Log CFU/g. Further, the “Log CFU/g, day 28” value in experiment [4] (day 28, beef loin in linear low density polyethylene film compounded with 1% w/w salt) is on record as 5.32 Log CFU/g. Besides, the “Log CFU/g, day 42” value in experiment [4] (day 42, beef loin in linear low density polyethylene film compounded with 1% w/w salt) was 5.57 Log CFU/g. In addition, in experiment [4] (setting [5]), the “Day 42 % reduction vs. control” value came out at 97.9% and the “Day 42 log reduction vs. control” value amounted to 1.67.

As for `CCCCCCCCCCCC(=O)N[C@@H](CCCNC(=N)N)C(=O)OCC` [LAE, N^α-lauroyl-L-arginine ethyl ester], in experiment [1], the “biocidal ions needed to inhibit or kill microbes” value was 2-128 ppm.
